Experimental data as given in PubChem BioAssay AID1963830 (Molecular Pharmacology Branch, DTP, NCI, 2024).

Test system: 922993-354-T-J3-PDC complex spheroid viability
Test: Anticancer human tumor 922993-354-T-J3-PDC patient-derived endometrial carcinoma cell line growth inhibition [POLQ]
Settings: for IC50: curve of first compound; for viability, T/C: stronger effect = lower value
Summary of the method: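 PDC + HUVEC + MSC complex spheroids; POLQ inhibitors ± partner drugs; top conc. at/near clinical Cmax, else 10 microM (SN-38 1 microM), half-log dilutions; 37 degrees C, 5% CO2.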

[1] = second compound 0.0316 µM, first compound 0.0316 µM
[2] = second compound 0.0316 µM, first compound 0.1 µM
[3] = second compound 0.0316 µM, first compound 0.316 µM
[4] = second compound 0.0316 µM, first compound 1 µM
[5] = second compound 0.0316 µM, first compound 3.16 µM
[6] = second compound 0.0316 µM, first compound 10 µM
[7] = second compound 0.1 µM, first compound 0.0316 µM
[8] = second compound 0.1 µM, first compound 0.1 µM
[9] = second compound 0.1 µM, first compound 0.316 µM
[10] = second compound 0.1 µM, first compound 1 µM
[11] = second compound 0.1 µM, first compound 3.16 µM
[12] = second compound 0.1 µM, first compound 10 µM
[13] = second compound 0.316 µM, first compound 0.0316 µM
[14] = second compound 0.316 µM, first compound 0.1 µM
[15] = second compound 0.316 µM, first compound 0.316 µM
[16] = second compound 0.316 µM, first compound 1 µM
[17] = second compound 0.316 µM, first compound 3.16 µM
[18] = second compound 0.316 µM, first compound 10 µM
[19] = second compound 1 µM, first compound 0.0316 µM
[20] = second compound 1 µM, first compound 0.1 µM
[21] = second compound 1 µM, first compound 0.316 µM
[22] = second compound 1 µM, first compound 1 µM
[23] = second compound 1 µM, first compound 3.16 µM
[24] = second compound 1 µM, first compound 10 µM
[25] = second compound 3.16 µM, first compound 0.0316 µM
[26] = second compound 3.16 µM, first compound 0.1 µM
[27] = second compound 3.16 µM, first compound 0.316 µM
[28] = second compound 3.16 µM, first compound 1 µM
[29] = second compound 3.16 µM, first compound 3.16 µM
[30] = second compound 3.16 µM, first compound 10 µM
[31] = second compound 10 µM, first compound 0.0316 µM
[32] = second compound 10 µM, first compound 0.1 µM
[33] = second compound 10 µM, first compound 0.316 µM
[34] = second compound 10 µM, first compound 1 µM
[35] = second compound 10 µM, first compound 3.16 µM
[36] = second compound 10 µM, first compound 10 µM
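Further: spheroids exposed to the agents for one week.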
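Wherever viability, T/C is given: 100% = DMSO vehicle control wells.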

CC1COCCN1c1cc(C2(O)CC3CCC(C2)O3)c2cnn(-c3ccn[nH]3)c2n1 (stereo not given) + COC1C(OC(N)=O)C(O)C(Oc2ccc3c(O)c(NC(=O)c4ccc(O)c(CC=C(C)C)c4)c(=O)oc3c2C)OC1(C)C
IC50 (second compound 0.0316 µM): 337 nM
IC50 (second compound 0.1 µM): 371 nM
IC50 (second compound 0.316 µM): 361 nM
IC50 (second compound 1 µM): 383 nM
IC50 (second compound 3.16 µM): 361 nM
IC50 (second compound 10 µM): 393 nM
viability, T/C [1]: 101%
viability, T/C [2]: 80.6%
viability, T/C [3]: 54.1%
viability, T/C [4]: 23.1%
viability, T/C [5]: 8.69%
viability, T/C [6]: 11.8%
viability, T/C [7]: 107%
viability, T/C [8]: 68.5%
viability, T/C [9]: 66.4%
viability, T/C [10]: 26.7%
viability, T/C [11]: 10.4%
viability, T/C [12]: 10.7%
viability, T/C [13]: 96%
viability, T/C [14]: 89.6%
viability, T/C [15]: 53.3%
viability, T/C [16]: 20.5%
viability, T/C [17]: 9.11%
viability, T/C [18]: 10.8%
viability, T/C [19]: 99.5%
viability, T/C [20]: 93.7%
viability, T/C [21]: 55.1%
viability, T/C [22]: 21.1%
viability, T/C [23]: 8.57%
viability, T/C [24]: 11.2%
viability, T/C [25]: 100%
viability, T/C [26]: 84.9%
viability, T/C [27]: 54.1%
viability, T/C [28]: 23.2%
viability, T/C [29]: 10.7%
viability, T/C [30]: 9.88%
viability, T/C [31]: 93.8%
viability, T/C [32]: 76.1%
viability, T/C [33]: 60.5%
viability, T/C [34]: 17.4%
viability, T/C [35]: 10.4%
viability, T/C [36]: 10.3%

CCc1cc2c(N3CCc4c(cc(Cn5ccnc5)cc4-c4cn(C)nc4C(F)(F)F)C3=O)cc(C)nc2c(OC)n1 + COC1C(OC(N)=O)C(O)C(Oc2ccc3c(O)c(NC(=O)c4ccc(O)c(CC=C(C)C)c4)c(=O)oc3c2C)OC1(C)C
IC50 (second compound 0.0316 µM): > 10000 nM
IC50 (second compound 0.1 µM): > 10000 nM
IC50 (second compound 0.316 µM): > 10000 nM
IC50 (second compound 1 µM): > 10000 nM
IC50 (second compound 3.16 µM): > 10000 nM
IC50 (second compound 10 µM): > 10000 nM
viability, T/C [1]: 113%
viability, T/C [2]: 98.7%
viability, T/C [3]: 99.7%
viability, T/C [4]: 107%
viability, T/C [5]: 99.8%
viability, T/C [6]: 80.5%
viability, T/C [7]: 111%
viability, T/C [8]: 94.3%
viability, T/C [9]: 108%
viability, T/C [10]: 98.1%
viability, T/C [11]: 104%
viability, T/C [12]: 88.9%
viability, T/C [13]: 103%
viability, T/C [14]: 103%
viability, T/C [15]: 93.7%
viability, T/C [16]: 108%
viability, T/C [17]: 94.1%
viability, T/C [18]: 88.1%
viability, T/C [19]: 108%
viability, T/C [20]: 111%
viability, T/C [21]: 103%
viability, T/C [22]: 99.2%
viability, T/C [23]: 90.2%
viability, T/C [24]: 82.4%
viability, T/C [25]: 95.9%
viability, T/C [26]: 106%
viability, T/C [27]: 108%
viability, T/C [28]: 95%
viability, T/C [29]: 86.2%
viability, T/C [30]: 80.6%
viability, T/C [31]: 92.8%
viability, T/C [32]: 89.1%
viability, T/C [33]: 87.5%
viability, T/C [34]: 92.9%
viability, T/C [35]: 92.4%
viability, T/C [36]: 74.3%

COc1cc2cc(C(=O)CCC(=O)O)sc2cc1OC + COC1C(OC(N)=O)C(O)C(Oc2ccc3c(O)c(NC(=O)c4ccc(O)c(CC=C(C)C)c4)c(=O)oc3c2C)OC1(C)C
IC50 (second compound 0.0316 µM): > 10000 nM
IC50 (second compound 0.1 µM): > 10000 nM
IC50 (second compound 0.316 µM): > 10000 nM
IC50 (second compound 1 µM): > 10000 nM
IC50 (second compound 3.16 µM): > 10000 nM
IC50 (second compound 10 µM): > 10000 nM
viability, T/C [1]: 105%
viability, T/C [2]: 94.7%
viability, T/C [3]: 108%
viability, T/C [4]: 106%
viability, T/C [5]: 103%
viability, T/C [6]: 60.1%
viability, T/C [7]: 103%
viability, T/C [8]: 110%
viability, T/C [9]: 104%
viability, T/C [10]: 105%
viability, T/C [11]: 107%
viability, T/C [12]: 73.1%
viability, T/C [13]: 111%
viability, T/C [14]: 101%
viability, T/C [15]: 104%
viability, T/C [16]: 106%
viability, T/C [17]: 101%
viability, T/C [18]: 74.2%
viability, T/C [19]: 104%
viability, T/C [20]: 92.3%
viability, T/C [21]: 97.2%
viability, T/C [22]: 102%
viability, T/C [23]: 105%
viability, T/C [24]: 65.1%
viability, T/C [25]: 97.4%
viability, T/C [26]: 87.6%
viability, T/C [27]: 100%
viability, T/C [28]: 96.1%
viability, T/C [29]: 113%
viability, T/C [30]: 61.8%
viability, T/C [31]: 86.3%
viability, T/C [32]: 75.2%
viability, T/C [33]: 101%
viability, T/C [34]: 91.4%
viability, T/C [35]: 91.4%
viability, T/C [36]: 62%

O=C(Nc1ccc(O)c(NS(=O)(=O)c2ccc(F)cc2)c1)c1ccc(-c2ccccc2)cc1 + COC1C(OC(N)=O)C(O)C(Oc2ccc3c(O)c(NC(=O)c4ccc(O)c(CC=C(C)C)c4)c(=O)oc3c2C)OC1(C)C
IC50 (second compound 0.0316 µM): > 10000 nM
IC50 (second compound 0.1 µM): > 10000 nM
IC50 (second compound 0.316 µM): > 10000 nM
IC50 (second compound 1 µM): > 10000 nM
IC50 (second compound 3.16 µM): > 10000 nM
IC50 (second compound 10 µM): > 10000 nM
viability, T/C [1]: 107%
viability, T/C [2]: 91.7%
viability, T/C [3]: 95.1%
viability, T/C [4]: 98.3%
viability, T/C [5]: 99.8%
viability, T/C [6]: 95.6%
viability, T/C [7]: 116%
viability, T/C [8]: 97.1%
viability, T/C [9]: 101%
viability, T/C [10]: 99.3%
viability, T/C [11]: 84%
viability, T/C [12]: 102%
viability, T/C [13]: 104%
viability, T/C [14]: 100%
viability, T/C [15]: 97.5%
viability, T/C [16]: 101%
viability, T/C [17]: 93.3%
viability, T/C [18]: 101%
viability, T/C [19]: 104%
viability, T/C [20]: 97.4%
viability, T/C [21]: 97.6%
viability, T/C [22]: 96.4%
viability, T/C [23]: 101%
viability, T/C [24]: 94.7%
viability, T/C [25]: 93.9%
viability, T/C [26]: 92.2%
viability, T/C [27]: 93.7%
viability, T/C [28]: 90.8%
viability, T/C [29]: 107%
viability, T/C [30]: 94.2%
viability, T/C [31]: 86.2%
viability, T/C [32]: 81.1%
viability, T/C [33]: 97.8%
viability, T/C [34]: 73.7%
viability, T/C [35]: 89.3%
viability, T/C [36]: 96.5%

COc1cccc2c1C(=O)c1c(O)c3c(c(O)c1C2=O)CC(O)(C(=O)CO)CC3OC1CC(N)C(O)C(C)O1 (stereo not given) + Cc1cccc(N(C)C(=O)C2C(O)CCN2c2nc(C)cc(C(F)(F)F)c2C#N)c1
IC50 (second compound 0.0316 µM): 1270 nM
IC50 (second compound 0.1 µM): 1210 nM
IC50 (second compound 0.316 µM): 947 nM
IC50 (second compound 1 µM): 1120 nM
IC50 (second compound 3.16 µM): 555 nM
IC50 (second compound 10 µM): 186 nM
viability, T/C [1]: 96.3%
viability, T/C [2]: 88%
viability, T/C [3]: 81.4%
viability, T/C [4]: 51.8%
viability, T/C [5]: 32.3%
viability, T/C [6]: 11.7%
viability, T/C [7]: 101%
viability, T/C [8]: 97.2%
viability, T/C [9]: 81.6%
viability, T/C [10]: 55.1%
viability, T/C [11]: 26.4%
viability, T/C [12]: 11.6%
viability, T/C [13]: 103%
viability, T/C [14]: 92.7%
viability, T/C [15]: 84.9%
viability, T/C [16]: 45%
viability, T/C [17]: 27.2%
viability, T/C [18]: 12.9%
viability, T/C [19]: 105%
viability, T/C [20]: 95.9%
viability, T/C [21]: 72.6%
viability, T/C [22]: 53.6%
viability, T/C [23]: 28.8%
viability, T/C [24]: 10.3%
viability, T/C [25]: 88.2%
viability, T/C [26]: 93.3%
viability, T/C [27]: 60.3%
viability, T/C [28]: 35.8%
viability, T/C [29]: 17.7%
viability, T/C [30]: 7.76%
viability, T/C [31]: 94.3%
viability, T/C [32]: 65.2%
viability, T/C [33]: 38.3%
viability, T/C [34]: 16.5%
viability, T/C [35]: 11.8%
viability, T/C [36]: 11.6%
